Assay results from US10064867B2, “Hsp90 inhibitors” (Sloan-Kettering Institute for Cancer Research, priority 2011, dated 2018).
Where two headings read alike, the source gives them in different places.

Legend:
Hsp90 = Hsp90 Binding Assay (fluorescence polarization, cy3B-GM displacement, SKBr3 lysate); design: species or system human; settings: read-out: SKBr3 Binding Affinity
hERG = hERG (Homo sapiens, UniProt Q12809); experiment: hERG binding
Source text: In interpreting these test results, it will be appreciated that binding to Hsp90 for activity in the treatment of cancer or neurodegenerative disorders is desirable. In contrast, it is generally undesirable to have binding to hERG since binding to hERG can result in undesirable cardiac side effects. Therefore, having a low value for binding to Hsp90 and a high value for binding to hERG is desirable, bearing in mind that the units for the two measurement are different.

[1] = human cancer cell lysate (SKBr3), cy3B-GM displacement, 4° C., 24 h

Sequence of hERG (Q12809 whole entry): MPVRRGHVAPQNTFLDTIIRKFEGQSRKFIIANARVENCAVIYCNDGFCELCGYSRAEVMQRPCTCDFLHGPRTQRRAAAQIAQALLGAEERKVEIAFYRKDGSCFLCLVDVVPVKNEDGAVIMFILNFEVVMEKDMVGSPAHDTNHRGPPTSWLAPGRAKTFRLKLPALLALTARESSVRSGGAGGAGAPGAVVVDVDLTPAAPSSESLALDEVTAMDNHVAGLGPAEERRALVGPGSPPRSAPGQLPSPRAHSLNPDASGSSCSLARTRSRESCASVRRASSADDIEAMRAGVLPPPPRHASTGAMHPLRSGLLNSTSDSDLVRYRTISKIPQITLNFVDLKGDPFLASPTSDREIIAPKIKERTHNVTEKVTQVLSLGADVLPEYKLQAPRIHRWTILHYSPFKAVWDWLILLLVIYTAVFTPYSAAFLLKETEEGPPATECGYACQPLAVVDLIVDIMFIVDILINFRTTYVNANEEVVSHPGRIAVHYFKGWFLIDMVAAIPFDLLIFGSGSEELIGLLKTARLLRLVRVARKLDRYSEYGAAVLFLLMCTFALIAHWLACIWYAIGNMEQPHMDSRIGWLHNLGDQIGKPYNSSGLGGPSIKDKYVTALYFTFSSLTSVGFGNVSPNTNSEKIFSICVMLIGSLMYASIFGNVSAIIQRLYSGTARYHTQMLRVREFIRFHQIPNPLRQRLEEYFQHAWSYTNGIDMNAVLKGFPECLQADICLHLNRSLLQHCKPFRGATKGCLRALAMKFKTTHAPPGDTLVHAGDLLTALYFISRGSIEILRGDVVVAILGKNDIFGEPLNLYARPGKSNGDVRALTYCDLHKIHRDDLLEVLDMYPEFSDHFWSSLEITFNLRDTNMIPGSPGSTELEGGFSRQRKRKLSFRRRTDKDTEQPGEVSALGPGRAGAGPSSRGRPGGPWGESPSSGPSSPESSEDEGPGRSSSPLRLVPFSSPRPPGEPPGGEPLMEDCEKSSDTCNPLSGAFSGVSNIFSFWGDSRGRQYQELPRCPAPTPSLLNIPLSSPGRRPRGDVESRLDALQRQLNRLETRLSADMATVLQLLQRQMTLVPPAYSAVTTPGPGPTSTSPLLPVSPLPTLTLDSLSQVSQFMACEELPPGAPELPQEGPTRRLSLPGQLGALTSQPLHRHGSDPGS

Row | IC50 (Hsp90; [1]) [nM] | SMILES | hERG binding (hERG) [µM] | IC50 (Hsp90) [nM]
1 | 55.3 | CC(C)NCCCn1c(Sc2cc3c(cc2N(C)C)OCO3)nc2c(N)ncnc21 [DZ4-134, 8-(6-(Dimethylamino)benzo[d][1,3]dioxol-5-ylthio)-9-(3-(isopropylamine)propyl)-9H-purin-6-amine] | 11.0 | 
2 | 45.4 | CN(C)c1cc2c(cc1Sc1nc3c(N)ncnc3n1CCCNC(C)(C)C)OCO2 [DZ4-135, 9-(3-(tert-Butylamino)propyl)-8-(6-(dimethylamino)benzo[d][1,3]dioxol-5-ylthio)-9H-purin-6-amine] | 14.0 | 
3 |  | CC(C)NCCCn1c(Sc2cc3c(cc2I)OCO3)nc2c(N)ncnc21 [PU-H71, reference compound] | 1 | […]
